Patent publication US20200222474A1, “COMPOSITIONS AND METHODS FOR INCREASING PHYTOCHEMICAL BIOAVAILABLITY AND BIOACTIVITY” (North Carolina State University, priority 2017, published 2020)

System: L. acidophilus NCFM
Experiment: RNA-seq transcriptional analysis of L. acidophilus NCFM growing on plant glycosides
Assay type: cell-based, Lactobacillus acidophilus
[1] = LBA0329 Putative cell division protein, COG D
[2] = LBA0466 Hypothetical protein, COG C
[3] = LBA0500 MSM operon repressor, COG K
[4] = LBA0545 Hypothetical protein, COG L
[5] = LBA0547 Putative site-specific recombinase, COG L
[6] = LBA0573 Putative transcriptional regulator, COG K
[7] = LBA0607 Putative transcriptional regulator, COG K
[8] = LBA0672 Putative phosphate starvation inducible protein stress related, COG J
[9] = LBA0753 Multi-drug-type permease, COG GEPR
[10] = LBA0886 Sugar kinase-putative transcriptional regulator, COG KG
[11] = LBA0887 Hypothetical protein, COG C
[12] = LBA0897 Putative Cro-like protein, COG K
[13] = LBA0910 L-lactate dehydrogenase, COG C
[14] = LBA1021 Putative transcriptional regulator, COG K
[15] = LBA1220 Pyridine mercuric reductase, COG C
[16] = LBA1392 Mucus binding protein precursor Mub, COG J
[17] = LBA1411 Fumarate reductase flavoprotein subunit, COG CS
[18] = LBA1436 Glycerol uptake facilitator protein, COG G
[19] = LBA1457 Galactose-1-epimerase, COG G
[20] = LBA1458 Galactose-1-phosphate uridylyltransferase, COG G
[21] = LBA1462 Beta-galactosidase, COG G
[22] = LBA1463 Lactose permease, COG G
[23] = LBA1465 Transcription repressor of beta-galactosidasegene, COG K
[24] = LBA1467 Beta-galactosidase large subunit (lactase), COG G
[25] = LBA1468 Beta-galactosidase small subunit, COG G
[26] = LBA1481 D-ribose-binding protein precursor, COG G
[27] = LBA1482 Ribose ABC transporter, COG G
[28] = LBA1483 Ribose ABC transporter ATP binding protein, COG G
[29] = LBA1484 D-ribose pyranase, COG G
[30] = LBA1494 Lincomycin-resistance protein, COG GEPR
[31] = LBA1607 Phosphatidylserine decarboxylase precursor, COG I
[32] = LBA1632 NAD-dependent aldehyde dehydrogenase, COG C
[33] = LBA1653 Nicotinamide mononucleotide, COG H
[34] = LBA1684 Putative PTS system IIA component, COG G
[35] = LBA1689 Maltose-6′-phosphate Oucosidase, COG G
[36] = LBA1700 Transcriptional regulator-type, COG K
[37] = LBA1701 Melibiose operon regulatory protein, COG K
[38] = LBA1705 PTS system IIBC component, COG G
[39] = LBA1708 Transcriptional antiterminator, COG K
[40] = LBA1710 Thermostable pullulanase, COG G
[41] = LBA1812 Alpha-glucosidase II, COG G
[42] = LBA1870 Maltose phosphorylase, COG G
[43] = LBA1872 Oligo-1,6-glucosidase, COG G
[44] = LBA1955 Transcription regulator family protein, COG K
[45] = gene LBA0046 (Hypothetical protein)
[46] = gene LBA0149 (Putative nucleotide-binding protein)
[47] = gene LBA0263 (Hypothetical protein)

## OCc1ccccc1O[C@@H]1O[C@H](CO)[C@@H](O)[C@H](O)[C@H]1O [Salicin]
LBA0016 Fructokinase, COG KG
  Log2 differential normalized TPM ratio compared to glucose: 1.7
  Log2 differential normalized TPM ratio compared to lactose: 0.5
  Transcripts per million (rpm): 300.8 rpm
[1]
  Log2 differential normalized TPM ratio compared to glucose: 0.4
  Log2 differential normalized TPM ratio compared to lactose: 0
  Transcripts per million (rpm): 22.1 rpm
[2]
  Log2 differential normalized TPM ratio compared to glucose: 1.3
  Log2 differential normalized TPM ratio compared to lactose: -0.2
  Transcripts per million (rpm): 238.1 rpm
[3]
  Log2 differential normalized TPM ratio compared to glucose: 1.4
  Log2 differential normalized TPM ratio compared to lactose: −0.3
  Transcripts per million (rpm): 138.7 rpm
[4]
  Log2 differential normalized TPM ratio compared to glucose: 1.8
  Log2 differential normalized TPM ratio compared to lactose: −0.3
  Transcripts per million (rpm): 259 rpm
[5]
  Log2 differential normalized TPM ratio compared to glucose: 1.5
  Log2 differential normalized TPM ratio compared to lactose: −0.3
  Transcripts per million (rpm): 32.5 rpm
[6]
  Log2 differential normalized TPM ratio compared to glucose: −1.1
  Log2 differential normalized TPM ratio compared to lactose: −1.2
  Transcripts per million (rpm): 43.7 rpm
[7]
  Log2 differential normalized TPM ratio compared to glucose: 0.8
  Log2 differential normalized TPM ratio compared to lactose: 0.3
  Transcripts per million (rpm): 86.7 rpm
[8]
  Log2 differential normalized TPM ratio compared to glucose: 1.1
  Log2 differential normalized TPM ratio compared to lactose: 0.2
  Transcripts per million (rpm): 3596.1 rpm
[9]
  Log2 differential normalized TPM ratio compared to glucose: 0.5
  Log2 differential normalized TPM ratio compared to lactose: 1.2
  Transcripts per million (rpm): 70.4 rpm
[10]
  Log2 differential normalized TPM ratio compared to glucose: 0.3
  Log2 differential normalized TPM ratio compared to lactose: 0
  Transcripts per million (rpm): 8.1 rpm
[11]
  Log2 differential normalized TPM ratio compared to glucose: 1.5
  Log2 differential normalized TPM ratio compared to lactose: 0.2
  Transcripts per million (rpm): 160.2 rpm
[12]
  Log2 differential normalized TPM ratio compared to glucose: 0.1
  Log2 differential normalized TPM ratio compared to lactose: 2.5
  Transcripts per million (rpm): 2.8 rpm
[13]
  Log2 differential normalized TPM ratio compared to glucose: 1.2
  Log2 differential normalized TPM ratio compared to lactose: 0.2
  Transcripts per million (rpm): 301.8 rpm
[14]
  Log2 differential normalized TPM ratio compared to glucose: −0.5
  Log2 differential normalized TPM ratio compared to lactose: −0.8
  Transcripts per million (rpm): 108.6 rpm
[15]
  Log2 differential normalized TPM ratio compared to glucose: 1.7
  Log2 differential normalized TPM ratio compared to lactose: 0.7
  Transcripts per million (rpm): 654.9 rpm
[16]
  Log2 differential normalized TPM ratio compared to glucose: 0.1
  Log2 differential normalized TPM ratio compared to lactose: 0.3
  Transcripts per million (rpm): 114.4 rpm
[17]
  Log2 differential normalized TPM ratio compared to glucose: 1.4
  Log2 differential normalized TPM ratio compared to lactose: 0.3
  Transcripts per million (rpm): 5.9 rpm
[18]
  Log2 differential normalized TPM ratio compared to glucose: 3.8
  Log2 differential normalized TPM ratio compared to lactose: 0
  Transcripts per million (rpm): 37.6 rpm
[19]
  Log2 differential normalized TPM ratio compared to glucose: 1.9
  Log2 differential normalized TPM ratio compared to lactose: −3.7
  Transcripts per million (rpm): 55.9 rpm
[20]
  Log2 differential normalized TPM ratio compared to glucose: 1.8
  Log2 differential normalized TPM ratio compared to lactose: −3.8
  Transcripts per million (rpm): 48.4 rpm
LBA1459 Galactokinase, COG G
  Log2 differential normalized TPM ratio compared to glucose: 0.8
  Log2 differential normalized TPM ratio compared to lactose: −3.9
  Transcripts per million (rpm): 42.2 rpm
[21]
  Log2 differential normalized TPM ratio compared to glucose: −0.1
  Transcripts per million (rpm): 16.8 rpm
[22]
  Log2 differential normalized TPM ratio compared to glucose: 0.1
  Log2 differential normalized TPM ratio compared to lactose: −4.6
  Transcripts per million (rpm): 62.2 rpm
LBA1464 Transposase, COG L
  Log2 differential normalized TPM ratio compared to glucose: 0
  Log2 differential normalized TPM ratio compared to lactose: −2.4
  Transcripts per million (rpm): 182.7 rpm
[23]
  Log2 differential normalized TPM ratio compared to glucose: −0.1
  Log2 differential normalized TPM ratio compared to lactose: −3.2
  Transcripts per million (rpm): 52.9 rpm
[24]
  Log2 differential normalized TPM ratio compared to glucose: 1.5
  Log2 differential normalized TPM ratio compared to lactose: −7.3
  Transcripts per million (rpm): 14.9 rpm
[25]
  Log2 differential normalized TPM ratio compared to glucose: 1
  Log2 differential normalized TPM ratio compared to lactose: −5.4
  Transcripts per million (rpm): 43.3 rpm
[26]
  Log2 differential normalized TPM ratio compared to glucose: 0.4
  Log2 differential normalized TPM ratio compared to lactose: −0.4
  Transcripts per million (rpm): 6.4 rpm
[27]
  Log2 differential normalized TPM ratio compared to glucose: 0.7
  Log2 differential normalized TPM ratio compared to lactose: −0.4
  Transcripts per million (rpm): 6.1 rpm
[28]
  Log2 differential normalized TPM ratio compared to glucose: 0.4
  Log2 differential normalized TPM ratio compared to lactose: −0.7
  Transcripts per million (rpm): 4.2 rpm
[29]
  Log2 differential normalized TPM ratio compared to glucose: 0.2
  Log2 differential normalized TPM ratio compared to lactose: −0.5
  Transcripts per million (rpm): 4.5 rpm
LBA1485 Ribokinase, COG G
  Log2 differential normalized TPM ratio compared to glucose: 0.5
  Log2 differential normalized TPM ratio compared to lactose: −0.3
  Transcripts per million (rpm): 4.5 rpm
[30]
  Log2 differential normalized TPM ratio compared to glucose: 0.6
  Log2 differential normalized TPM ratio compared to lactose: 0.5
  Transcripts per million (rpm): 8.2 rpm
[31]
  Log2 differential normalized TPM ratio compared to glucose: 0.9
  Log2 differential normalized TPM ratio compared to lactose: −0.2
  Transcripts per million (rpm): 37.9 rpm
[32]
  Log2 differential normalized TPM ratio compared to glucose: 2
  Log2 differential normalized TPM ratio compared to lactose: 0.2
  Transcripts per million (rpm): 300.2 rpm
[33]
  Log2 differential normalized TPM ratio compared to glucose: 1.3
  Log2 differential normalized TPM ratio compared to lactose: 0.7
  Transcripts per million (rpm): 618.8 rpm
[34]
  Log2 differential normalized TPM ratio compared to glucose: 2.6
  Log2 differential normalized TPM ratio compared to lactose: 0.6
  Transcripts per million (rpm): 76.9 rpm
[35]
  Log2 differential normalized TPM ratio compared to glucose: 3.7
  Log2 differential normalized TPM ratio compared to lactose: 2.2
  Transcripts per million (rpm): 47.4 rpm
[36]
  Log2 differential normalized TPM ratio compared to glucose: 0.1
  Log2 differential normalized TPM ratio compared to lactose: −0.4
  Transcripts per million (rpm): 23 rpm
[37]
  Log2 differential normalized TPM ratio compared to glucose: 1
  Log2 differential normalized TPM ratio compared to lactose: 0.2
  Transcripts per million (rpm): 84.1 rpm
[38]
  Log2 differential normalized TPM ratio compared to glucose: 1.3
  Log2 differential normalized TPM ratio compared to lactose: 0.4
  Transcripts per million (rpm): 8.4 rpm
[39]
  Log2 differential normalized TPM ratio compared to glucose: 1.2
  Log2 differential normalized TPM ratio compared to lactose: −0.2
  Transcripts per million (rpm): 1.3 rpm
[40]
  Log2 differential normalized TPM ratio compared to glucose: 0.5
  Log2 differential normalized TPM ratio compared to lactose: 0.1
  Transcripts per million (rpm): 10.8 rpm
LBA1723 Transposase, COG L
  Log2 differential normalized TPM ratio compared to glucose: 0.5
  Log2 differential normalized TPM ratio compared to lactose: 0.2
  Transcripts per million (rpm): 75.5 rpm
[41]
  Log2 differential normalized TPM ratio compared to glucose: 2.2
  Log2 differential normalized TPM ratio compared to lactose: 0.1
  Transcripts per million (rpm): 75.4 rpm
[42]
  Log2 differential normalized TPM ratio compared to glucose: −0.9
  Log2 differential normalized TPM ratio compared to lactose: 0.2
  Transcripts per million (rpm): 55.6 rpm
LBA1871 Neopullulanase, COG G
  Log2 differential normalized TPM ratio compared to glucose: 0.9
  Log2 differential normalized TPM ratio compared to lactose: 0.2
  Transcripts per million (rpm): 5.1 rpm
[43]
  Log2 differential normalized TPM ratio compared to glucose: 1
  Log2 differential normalized TPM ratio compared to lactose: 0.6
  Transcripts per million (rpm): 6.2 rpm
LBA1873 Acetate kinase, COG C
  Log2 differential normalized TPM ratio compared to glucose: 1.2
  Log2 differential normalized TPM ratio compared to lactose: −0.2
  Transcripts per million (rpm): 8.3 rpm
LBA1878 Glycerol kinase, COG C
  Log2 differential normalized TPM ratio compared to glucose: 0.1
  Log2 differential normalized TPM ratio compared to lactose: 0
  Transcripts per million (rpm): 9.3 rpm
[44]
  Log2 differential normalized TPM ratio compared to glucose: −0.3
  Log2 differential normalized TPM ratio compared to lactose: 0.1
  Transcripts per million (rpm): 428.6 rpm
RNA-seq, compared to glucose
  number of up-regulated genes: 33 genes
RNA-seq, up-regulated genes not shared with the other PGs
  number of uniquely induced genes: 0
[45]
  Log2 differential normalized TPM ratio compared to glucose: −0.2
  Log2 differential normalized TPM ratio compared to lactose: −0.9
  Transcripts per million (rpm): 270.7 rpm
[46]
  Log2 differential normalized TPM ratio compared to glucose: 1.2
  Log2 differential normalized TPM ratio compared to lactose: 0.4
  Transcripts per million (rpm): 1141 rpm
[47]
  Log2 differential normalized TPM ratio compared to glucose: 0.9
  Log2 differential normalized TPM ratio compared to lactose: 0.1
  Transcripts per million (rpm): 30.2 rpm
Gene LBA0282 (Hypothetical protein)
  Log2 differential normalized TPM ratio compared to glucose: 0.7
